Values after ≈ are worked out from the molar mass of the structure shown. Like-named read-outs stand apart in the source and are kept apart here. Positions of bridges follow the written chain, without caps; N, C: chain ends. Non-standard residues stand in square brackets, D forms with d. Residues, ends and D or L forms follow the SMILES beside them. *: point of attachment. Ileψ(thiazoline)Cys = CC[C@H](C)[C@H](N)C1=N[C@H](C(=O)*)CS1; dOrn = NCCC[C@@H](N)C(=O)O
How the values were obtained:
[1] = test system: Lactobacillus rhamnosus GG (ATCC 53103); assay: Antibiotic MIC plates (resistance profile); type: cell-based; details: median of two repetitions
Excerpt: (§1) The protocol was adapted from Delgado et al. (2005). Minimum Inhibitory Concentration (MIC) Plate (# GPN3F) and Anaerobe MIC Plate (# AN02B) were used to determine the antibiotic sensitivity and resistance profile of MM19 and MM33 according to the instructions of the manufacturer (Trek Diagnostic Systems; Nova Century, Burlington, ON, Canada).
(§2) Lactococcus lactis subsp. lactis MM19, Pediococcus acidilactici MM33 and Lactobacillus rhamnosus GG (ATCC 53103) from frozen glycerol stock were first inoculated in Lactobacilli MRS and incubated at 37° C. for 18 h. 100 μl of this culture were further incubated under the same conditions. This second culture was then inoculated on a MRS agar plate and incubated at 37° C. for 48 h under anaerobic conditions using GasPak Plus system (BD BBL, Sparks, Md., USA).

[2] = test system: Lactococcus lactis subsp. lactis MM19; assay: Antibiotic MIC plates (resistance profile); type: cell-based; details: MM19, median of two repetitions
Excerpt: as §1, §2

[3] = test system: Pediococcus acidilactici MM33; assay: Antibiotic MIC plates (resistance profile); type: cell-based; details: median of two repetitions
Excerpt: as §1, §2

[4] = test system: vancomycin-resistant Enterococcus (VRE); assay: VRE intestinal colonization (infection) model; type: in vivo, CF-1 mice
Method: The tubes containing fresh stool samples, collected from individual mice, were weighted, so that the weight of the feces could be deduced. Then, all the feces were diluted in […] of sterile saline, homogenized with a pestle, and serially diluted 10-fold in 0.1% peptone water. Finally, […] of each dilution were inoculated on the following media: MRS agar for detection of total lactic acid bacteria (LAB), Rogosa SL agar for selective detection of Lactobacillus spp., Reinforced Clostridium Medium (RCM) for quantification of total anaerobic and mesophilic bacteria, Baird-Parker agar (BPA) for selective detection of Staphylococcus spp., MacConkey agar for selective enumeration of Enterobacteriaceae, Enterococcosel agar for selective quantification of total Enterococcus spp. and finally Enterococcosel agar+20 μg/ml of vancomycin (Sigma) for detection and enumeration of VRE. A volume of 100 μl of the undiluted sample was also plated. MRS, Rogosa and RCM plates were incubated in anaerobic jars at 37° C. for 72 h while BPA, MacConkey and both Enterococcosel agar plates were incubated under aerobic conditions at 37° C. for 48 h. When negative results were obtained for Enterococcosel agar+20 μg/ml of vancomycin after 48 h of incubation, the plates were allowed to incubate for another 24 h. For statistical purposes, a value in CFU per gram that was based upon the weight of individual specimens was assigned for faeces without microorganisms.
A VRE intestinal colonization (infection) model was adapted from Donskey et al. 25-30 g CF-1 female mice (Charles River) were used. Daily subcutaneous administration of clindamycin (1.4 mg/d) for five days was used to disrupt the intestinal microbiota to induce VRE infection. Three days after the end of clindamycin administration, gastric inoculation of 250 μl of an overnight culture of VRE in BHI broth was used to infect the mice. Approximately 10^8 viable VRE was administered to the mice. Since the beginning of the antibiotic therapy, all groups of LAB-treated mice received once daily […] of 10^10 CFU/ml of Lc. lactis subsp. lactis MM19, P. acidilactici MM33 or P. acidilactici MM33A previously washed twice in sterile PBS. The mice received the LAB until the eighth day after the infection. Bacitracin (Sigma) antibiotic was administrated orally once daily during three days following the mice infection with VRE as 600 units/d diluted in […] of sterile PBS. This treatment was then discontinued and replaced by PBS. Stool samples were collected before the antibiotic administration and 1, 3, 6, 8 and 12 days after the VRE infection. Fecal concentrations of total culturable VRE were analyzed using selective media. This experiment was repeated twice using a total of eight mice per experimental group.

[5] = Lacticaseibacillus rhamnosus, ATCC53103, L. rhamnosus GG, ANO2 plate, read-out: MIC
[6] = Lacticaseibacillus rhamnosus, ATCC53103, L. rhamnosus GG, GPN3F plate, read-out: MIC
[7] = Lactococcus lactis, ANO2 plate, read-out: MIC
[8] = Lactococcus lactis, GPN3F plate, read-out: MIC
[9] = Pediococcus acidilactici, MM33, MM33, ANO2 plate, read-out: MIC
[10] = Pediococcus acidilactici, MM33, MM33, GPN3F plate, read-out: MIC

Compound	MIC [1, 5] [µg/mL]	MIC [1, 6] [µg/mL]	MIC [2, 7] [µg/mL]	MIC [2, 8] [µg/mL]	MIC [3, 9] [µg/mL]	MIC [3, 10] [µg/mL]	other results
CC1(C)S[C@@H]2[C@H](NC(=O)[C@H](N)c3ccccc3)C(=O)N2[C@H]1C(=O)O [AMP, Ampicillin]	1 (≈ 2.86 µM)	1 (≈ 2.86 µM)	< 0.5	0.12 to 0.25 (≈ 0.343 to 0.715 µM)	4 (≈ 11.4 µM)	2 (≈ 5.72 µM)	
CO/N=C(\C(=O)N[C@@H]1C(=O)N2C(C(=O)O)=C(CSc3nc(=O)c(=O)[nH]n3C)CS[C@H]12)c1csc(N)n1 [AXO, Ceftriaxone]		32 to 64 (≈ 57.7 to 115 µM)		< 8		16 (≈ 28.9 µM)	
CC[C@H](C)[C@H](N)C1=N[C@H](C(=O)N[C@@H](CC(C)C)C(=O)N[C@H](CCC(=O)O)C(=O)N[C@H](C(=O)N[C@H]2CCCCNC(=O)[C@H](CC(N)=O)NC(=O)[C@@H](CC(=O)O)NC(=O)[C@H](Cc3cnc[nH]3)NC(=O)[C@@H](Cc3ccccc3)NC(=O)[C@H]([C@@H](C)CC)NC(=O)[C@@H](CCCN)NC2=O)[C@@H](C)CC)CS1 [Bacitracin] ({Ileψ(thiazoline)Cys}-L[dE]IK[dOrn]I[dF]H[dD]N; lactam 4-C)							Mice colonized with VRE (%) ([4]; 0 days after VRE infection): 0%; Mice colonized with VRE (%) ([4]; 1 day after VRE infection): 100%; Mice colonized with VRE (%) ([4]; 3 days after VRE infection): 0%; Mice colonized with VRE (%) ([4]; 6 days after VRE infection): 100%; Mice colonized with VRE (%) ([4]; 8 days after VRE infection): 100%; Mice colonized with VRE (%) ([4]; 12 days after VRE infection): 100%; VRE population (in words) ([4]; after the treatment was discontinued): reappeared; Level of VRE in feces (in words) ([4]; day 3, 600 units/d orally for three days after infection): undetectable level
O=C(N[C@H](CO)[C@H](O)c1ccc([N+](=O)[O-])cc1)C(Cl)Cl [CHL, Chloramphenicol]	8 (≈ 24.8 µM)		4 (≈ 12.4 µM)		16 (≈ 49.5 µM)		
O=C(O)c1cn(C2CC2)c2cc(N3CCNCC3)c(F)cc2c1=O [CIP, Ciprofloxacin]		1 (≈ 3.02 µM)		2 (≈ 6.04 µM)			
CCC[C@@H]1C[C@@H](C(=O)N[C@@H]([C@H]2O[C@H](SC)[C@H](O)[C@@H](O)[C@H]2O)[C@H](C)Cl)N(C)C1 [CLI, Clindamycin]	0.5 (≈ 1.18 µM)	< 0.12	0.5 (≈ 1.18 µM)	0.25 (≈ 0.588 µM)	< 0.25	< 0.12	
CCCCCCCCCC(=O)N[C@@H](Cc1c[nH]c2ccccc12)C(=O)N[C@H](CC(N)=O)C(=O)N[C@@H](CC(=O)O)C(=O)N[C@@H]1C(=O)NCC(=O)N[C@@H](CCCN)C(=O)N[C@@H](CC(=O)O)C(=O)N[C@H](C)C(=O)N[C@@H](CC(=O)O)C(=O)NCC(=O)N[C@H](CO)C(=O)N[C@@H]([C@H](C)CC(=O)O)C(=O)N[C@@H](CC(=O)c2ccccc2N)C(=O)O[C@@H]1C [DAP, Daptomycin]		2 (≈ 1.23 µM)		0.5 to 1 (≈ 0.309 to 0.617 µM)		1 (≈ 0.617 µM)	
CC[C@H]1OC(=O)[C@H](C)[C@@H](O[C@H]2C[C@@](C)(OC)[C@@H](O)[C@H](C)O2)[C@H](C)[C@@H](O[C@@H]2O[C@H](C)C[C@H](N(C)C)[C@H]2O)[C@](C)(O)C[C@@H](C)C(=O)[C@H](C)[C@@H](O)[C@]1(C)O [ERY, Erythromycin]		< 0.25		< 0.25		< 0.25	
CO[C@@]1(NC(=O)Cc2cccs2)C(=O)N2C(C(=O)O)=C(COC(N)=O)CS[C@@H]21 [FOX, Cefoxitin]	> 32		> 32		> 32		
COc1c(N2CCNC(C)C2)c(F)cc2c(=O)c(C(=O)O)cn(C3CC3)c12 (stereo not drawn) [GAT, Gatofloxacin]							MIC ([1]; L. rhamnosus GG, GPN3F plate): <1 µg/mL; MIC ([2]; GPN3F plate): <1 µg/mL; MIC ([3]; MM33, GPN3F plate): <1 µg/mL
C[C@@H](O)[C@H]1C(=O)N2C(C(=O)O)=C(SCCN=CN)C[C@H]12 [IMI, Imipenem]	2 (≈ 6.68 µM)		0.25 (≈ 0.835 µM)		0.5 (≈ 1.67 µM)		
C[C@H]1COc2c(N3CCN(C)CC3)c(F)cc3c(=O)c(C(=O)O)cn1c23 [LEVO, Levofloxacin]		2 to 4 (≈ 5.53 to 11.1 µM)		0.5 (≈ 1.38 µM)		> 8	
CC(=O)NC[C@H]1CN(c2ccc(N3CCOCC3)c(F)c2)C(=O)O1 [LZD, Linezolid]		1 to 2 (≈ 2.96 to 5.93 µM)		2 (≈ 5.93 µM)		4 to 8 (≈ 11.9 to 23.7 µM)	
C[C@@H](O)[C@H]1C(=O)N2C(C(=O)O)=C(S[C@@H]3CN[C@H](C(=O)N(C)C)C3)[C@H](C)[C@H]12 [MERO, Meropenem]	8 (≈ 20.9 µM)		< 0.5		2 (≈ 5.22 µM)		
CC1(C)S[C@@H]2[C@H](NC(=O)[C@H](NC(=O)N3CCN(S(C)(=O)=O)C3=O)c3ccccc3)C(=O)N2[C@H]1C(=O)O [MEZ, Mezlocillin]	< 4		< 4		8 (≈ 14.8 µM)		
Cc1ncc([N+](=O)[O-])n1CCO [MRD, Metronidazole]	> 16		> 16		> 16		
CCN1CCN(C(=O)N[C@@H](C(=O)N[C@@H]2C(=O)N3[C@@H]2SC(C)(C)[C@@H]3C(=O)O)c2ccccc2)C(=O)C1=O [PIP, Piperacillin]	< 4		< 4		8 (≈ 15.5 µM)		
CO[C@H]1/C=C/O[C@@]2(C)Oc3c(C)c(O)c4c(O)c(c(/C=N/N5CCN(C)CC5)c(O)c4c3C2=O)NC(=O)/C(C)=C\C=C\[C@H](C)[C@H](O)[C@@H](C)[C@@H](O)[C@@H](C)[C@H](OC(C)=O)[C@@H]1C [RIF, Rifampin]		< 0.5		> 4		0.5 to 1 (≈ 0.608 to 1.22 µM)	
[H]/N=C(/N)N[C@H]1[C@H](O)[C@@H](O)[C@H](O[C@@H]2O[C@@H](C)[C@](O)(C=O)[C@H]2O[C@@H]2O[C@@H](CO)[C@H](O)[C@@H](O)[C@@H]2NC)[C@@H](N/C(N)=N\[H])[C@@H]1O [STR, Streptomycin]		< 1000		< 1000		< 1000	
CO[C@@]1(NC(=O)C2SC(=C(C(N)=O)C(=O)O)S2)C(=O)N2C(C(=O)O)=C(CSc3nnnn3C)CS[C@@H]21 (stereo partly drawn) [TANS, Cefotetan]	> 64		> 64		> 64		
CN(C)[C@@H]1C(O)=C(C(N)=O)C(=O)[C@@]2(O)C(O)=C3C(=O)c4c(O)cccc4[C@@](C)(O)[C@H]3C[C@@H]12 [TET, Tetracycline]	1 (≈ 2.25 µM)	< 2	0.375 (≈ 0.844 µM)	< 2	> 8	> 16	
Amoxicillin/Clavulanic acid [AUG]							MIC ([3]; MM33, ANO2 plate): 4/2
Ampicillin/Sulbactam [A/S]							MIC ([3]; MM33, ANO2 plate): 4/2
Gentamicin							MIC ([1]; L. rhamnosus GG, GPN3F plate): <2 µg/mL; MIC ([2]; GPN3F plate): 2 to 4 µg/mL; MIC ([3]; MM33, GPN3F plate): <2 µg/mL
Oxacillin + 2% NaCl [OXA+]							MIC ([1]; L. rhamnosus GG, GPN3F plate): 0.25 to 0.5 µg/mL; MIC ([2]; GPN3F plate): 1 µg/mL; MIC ([3]; MM33, GPN3F plate): 2 µg/mL
Penicillin							MIC ([1]; L. rhamnosus GG, ANO2 plate): 0.5 µg/mL; MIC ([1]; L. rhamnosus GG, GPN3F plate): 0.5 µg/mL; MIC ([2]; ANO2 plate): 0.5 µg/mL; MIC ([2]; GPN3F plate): 0.25 to 0.5 µg/mL; MIC ([3]; MM33, ANO2 plate): 1 µg/mL; MIC ([3]; MM33, GPN3F plate): 0.5 µg/mL
Piperacillin/Tazobactam [P/T]							MIC ([1]; L. rhamnosus GG, ANO2 plate): 1/4; MIC ([2]; ANO2 plate): 2/4; MIC ([3]; MM33, ANO2 plate): 8/4
Quinupristin/Dalfopristin [SYN]							MIC ([1]; L. rhamnosus GG, GPN3F plate): 1 to 2 µg/mL; MIC ([2]; GPN3F plate): 4 µg/mL; MIC ([3]; MM33, GPN3F plate): 1 µg/mL
Trimethoprim/Sulfamethoxazole [SXT]							MIC ([1]; L. rhamnosus GG, GPN3F plate): >4/76; MIC ([2]; GPN3F plate): >4/76; MIC ([3]; MM33, GPN3F plate): >4/76
